Assay results taken from the supplement of paper PMC4862054.

What was measured:
Details in all cases: incubation time: 72 h
MDA-MB-436 [1] = assay: drug sensitivity score (DSS), CellTox Green (DSS (AUC-based score)); higher = stronger drug effect (viability inhibition or cytotoxicity); extreme values may be limits of the assay
Method in brief: (§1)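 After 72 h of incubation in 384-well plates with compound at 5 concentrations (10-fold steps, 10,000-fold range set per compound), breast cancer cell lines seeded in 20 µl suspension were read first for CellTox Green fluorescence at 485/520 nm. CellTiter-Glo luminescence was measured next, after 10 min at room temperature. Normalisation on each plate used 0.1 % DMSO and a positive kill control, and the drug sensitivity score was computed from the area under the fitted dose-response curve.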

MDA-MB-468 [2] = assay: as above
Method in brief: as §1

CAL-85-1 = assay: normalised response (% of control), CellTiter-Glo; higher = more viable cells (100 = DMSO, 0 = benzethonium chloride kill control)
Method in brief: (§2)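 For each plate, 0.1 % DMSO was set to 100 and a positive kill control to 0. Breast cancer cell lines (20 µl suspension) were seeded into 384-well plates already holding compound at 5 concentrations in 10-fold steps over a 10,000-fold range chosen per compound, and incubated for 72 h. CellTox Green fluorescence at 485/520 nm was read before CellTiter-Glo luminescence, which followed 10 min at room temperature. Each value is the normalised signal at one concentration.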

DU-4475 = assay: as above
Method in brief: as §2

HCC1599 = assay: as above
Method in brief: as §2

MDA-MB-453 = assay: as above
Method in brief: as §2

CAL-51 = assay: as above
Method in brief: as §2

BT-474 = assay: as above
Method in brief: as §2

Hs578T = assay: as above
Method in brief: as §2

MDA-MB-436 [3] = assay: as above
Method in brief: as §2

MFM-223 = assay: as above
Method in brief: as §2

MCF-10A = assay: as above
Method in brief: as §2

HCC1143 = assay: as above
Method in brief: as §2

SK-BR-3 = assay: as above
Method in brief: as §2

CAL-120 = assay: as above
Method in brief: as §2

MDA-MB-468 [4] = assay: as above
Method in brief: as §2

CAL-148 = assay: as above
Method in brief: as §2

HDQ-P1 = assay: as above
Method in brief: as §2

HCC1937 = assay: as above
Method in brief: as §2

MDA-MB-231 = assay: as above
Method in brief: as §2

BT-549 = assay: as above
Method in brief: as §2

Compound: CS(=O)(=O)CCNCc1ccc(-c2ccc3ncnc(Nc4ccc(OCc5cccc(F)c5)c(Cl)c4)c3c2)o1 [Lapatinib]
- drug sensitivity score (MDA-MB-436 [1]): 0
- drug sensitivity score (MDA-MB-468 [2]): 0

Compound: C[C@@H]1CCN(C(=O)CC#N)C[C@@H]1N(C)c1ncnc2[nH]ccc12 [Tofacitinib]
- drug sensitivity score (MDA-MB-436 [1]): 0
- drug sensitivity score (MDA-MB-468 [2]): 0

Compound: CCOc1cc2ncc(C#N)c(Nc3ccc(OCc4ccccn4)c(Cl)c3)c2cc1NC(=O)/C=C/CN(C)C [Neratinib]
- drug sensitivity score (MDA-MB-436 [1]): 0
- drug sensitivity score (MDA-MB-468 [2]): 9.51

Compound: CC(C)(C)c1cc(NC(=O)Nc2ccc(-c3cn4c(n3)sc3cc(OCCN5CCOCC5)ccc34)cc2)no1 [Quizartinib]
- drug sensitivity score (MDA-MB-468 [2]): 0

Compound: COc1cc(Nc2ncc(F)c(Nc3ccc4c(n3)NC(=O)C(C)(C)O4)n2)cc(OC)c1OC [Tamatinib]
- drug sensitivity score (MDA-MB-436 [1]): 0

Compound: O=c1[nH]cc(F)c(=O)[nH]1 [Fluorouracil] (10000 nM)
- normalised response (CAL-85-1): 57.5%
- normalised response (DU-4475): 99.5%
- normalised response (HCC1599): 93.8%
- normalised response (MDA-MB-453): 94.8%
- normalised response (CAL-51): 85.3%
- normalised response (BT-474): 92.7%
- normalised response (Hs578T): 93.7%
- normalised response (MDA-MB-436 [3]): 75.8%
- normalised response (MFM-223): 105%
- normalised response (MCF-10A): 88.4%
- normalised response (HCC1143): 76%
- normalised response (SK-BR-3): 74.8%
- normalised response (CAL-120): 95.5%
- normalised response (MDA-MB-468 [4]): 77.4%
- normalised response (CAL-148): 88.6%
- normalised response (HDQ-P1): 91.8%
- normalised response (HCC1937): 72.8%
- normalised response (MDA-MB-231): 82.2%
- normalised response (BT-549): 91.7%

Compound: CC(C)C[C@H](NC(=O)[C@H](Cc1ccccc1)NC(=O)c1cnccn1)B(O)O [Bortezomib] (1000 nM)
- normalised response (CAL-85-1): 0.44%
- normalised response (DU-4475): 6.46%
- normalised response (HCC1599): 21.3%
- normalised response (MDA-MB-453): 11.5%
- normalised response (CAL-51): 2.86%
- normalised response (BT-474): 1.31%
- normalised response (Hs578T): 0.04%
- normalised response (MDA-MB-436 [3]): 1.47%
- normalised response (MFM-223): 2.91%
- normalised response (MCF-10A): 3.63%
- normalised response (HCC1143): 5.75%
- normalised response (SK-BR-3): 1.8%
- normalised response (CAL-120): 7.39%
- normalised response (MDA-MB-468 [4]): 0.97%
- normalised response (CAL-148): 0.43%
- normalised response (HDQ-P1): 0.65%
- normalised response (HCC1937): 2.46%
- normalised response (MDA-MB-231): 0.08%
- normalised response (BT-549): 2.23%

Compound: C#Cc1cccc(Nc2ncnc3cc(OC)c(OCCCCCCC(=O)NO)cc23)c1 [CUDC-101] (10000 nM)
- normalised response (CAL-85-1): 1.02%
- normalised response (DU-4475): 5.82%
- normalised response (HCC1599): 7.05%
- normalised response (MDA-MB-453): 4.64%
- normalised response (CAL-51): 12.8%
- normalised response (BT-474): 8.24%
- normalised response (Hs578T): 6.2%
- normalised response (MDA-MB-436 [3]): 33.5%
- normalised response (MFM-223): 26.4%
- normalised response (MCF-10A): 8.27%
- normalised response (HCC1143): 15.1%
- normalised response (SK-BR-3): 0.76%
- normalised response (CAL-120): 38.6%
- normalised response (MDA-MB-468 [4]): 9.04%
- normalised response (CAL-148): 0.32%
- normalised response (HDQ-P1): 33.4%
- normalised response (HCC1937): 21%
- normalised response (MDA-MB-231): 2.74%
- normalised response (BT-549): 18%

Compound: O=c1[nH]c(=O)n([C@H]2C[C@H](O)[C@@H](CO)O2)cc1F [Floxuridine] (10000 nM)
- normalised response (CAL-85-1): 23.6%
- normalised response (DU-4475): 70.7%
- normalised response (HCC1599): 58.1%
- normalised response (MDA-MB-453): 97.6%
- normalised response (CAL-51): 29.4%
- normalised response (BT-474): 59%
- normalised response (Hs578T): 23%
- normalised response (MDA-MB-436 [3]): 57.3%
- normalised response (MFM-223): 103%
- normalised response (MCF-10A): 84.7%
- normalised response (HCC1143): 77.6%
- normalised response (SK-BR-3): 44.8%
- normalised response (CAL-120): 33.5%
- normalised response (MDA-MB-468 [4]): 60.7%
- normalised response (CAL-148): 95.7%
- normalised response (HDQ-P1): 82.8%
- normalised response (HCC1937): 42%
- normalised response (MDA-MB-231): 67.9%
- normalised response (BT-549): 80.1%

Compound: O=C(c1ccc(OCCN2CCCCC2)cc1)c1c(-c2ccc(O)cc2)sc2cc(O)ccc12 [Raloxifene] (10000 nM)
- normalised response (CAL-85-1): 76.7%
- normalised response (DU-4475): 90.1%
- normalised response (HCC1599): 49.1%
- normalised response (MDA-MB-453): 66.1%
- normalised response (CAL-51): 104%
- normalised response (BT-474): 62.3%
- normalised response (Hs578T): 96.9%
- normalised response (MDA-MB-436 [3]): 71.8%
- normalised response (MFM-223): 62.5%
- normalised response (MCF-10A): 107%
- normalised response (HCC1143): 101%
- normalised response (SK-BR-3): 82.7%
- normalised response (CAL-120): 82.2%
- normalised response (MDA-MB-468 [4]): 46.1%
- normalised response (CAL-148): 99.4%
- normalised response (HDQ-P1): 86.8%
- normalised response (HCC1937): 79.1%
- normalised response (MDA-MB-231): 68.5%
- normalised response (BT-549): 70.7%

Compound: COc1cccc2c1C(=O)c1c(O)c3c(c(O)c1C2=O)C[C@@](O)(C(C)=O)C[C@@H]3O[C@H]1C[C@H](N)[C@H](O)[C@H](C)O1 [Daunorubicin] (1000 nM)
- normalised response (CAL-85-1): 7.68%
- normalised response (DU-4475): 0.14%
- normalised response (HCC1599): 19.3%
- normalised response (MDA-MB-453): 4.31%
- normalised response (CAL-51): 3.08%
- normalised response (BT-474): 19%
- normalised response (Hs578T): 35.1%
- normalised response (MDA-MB-436 [3]): 22.8%
- normalised response (MFM-223): 34.7%
- normalised response (MCF-10A): 27.1%
- normalised response (HCC1143): 23.9%
- normalised response (SK-BR-3): 11.6%
- normalised response (CAL-120): 41.2%
- normalised response (MDA-MB-468 [4]): 8.42%
- normalised response (CAL-148): 0.79%
- normalised response (HDQ-P1): 27.9%
- normalised response (HCC1937): 32.1%
- normalised response (MDA-MB-231): 8.81%
- normalised response (BT-549): 10.7%

Compound: Cn1cnc2c(F)c(Nc3ccc(Br)cc3F)c(C(=O)NOCCO)cc21 [MEK-162] (1000 nM)
- normalised response (CAL-85-1): 78.8%
- normalised response (DU-4475): 1.31%
- normalised response (HCC1599): 100%
- normalised response (MDA-MB-453): 97.9%
- normalised response (CAL-51): 76.4%
- normalised response (BT-474): 73.9%
- normalised response (Hs578T): 90%
- normalised response (MDA-MB-436 [3]): 94%
- normalised response (MFM-223): 96.2%
- normalised response (MCF-10A): 38.9%
- normalised response (HCC1143): 86.5%
- normalised response (SK-BR-3): 94.5%
- normalised response (CAL-120): 86.6%
- normalised response (MDA-MB-468 [4]): 88.3%
- normalised response (CAL-148): 95.9%
- normalised response (HDQ-P1): 71.5%
- normalised response (HCC1937): 86%
- normalised response (MDA-MB-231): 74.8%
- normalised response (BT-549): 92.7%
